The values that follow come from US20190125822A1, “COMPOSITION FOR IMPROVING OR PREVENTING NONALCOHOLIC FATTY LIVER” (KOHJIN LIFE SCIENCES CO., LTD., priority 2015, published 2019).

Molecules are shown by their SMILES.

Assay [1] concerns Mice (C57/B6J) fed with high-fat food. The conditions noted are these: 20 weeks old. From the text:
Mice (C57/B6J, 8 weeks old male) were divided into 4 groups (5 animals each), and the first group (DB) was freely fed with ordinary food (CertifiedDiet “MF” manufactured by Oriental Yeast Co., ltd.). The second group (HFD) was freely fed with high-fat food (High Fat Diet 32, manufactured by CLEA Japan, Inc.), […].
When the mouse was 20 weeks old, the body weight, the liver weight, the serum aspartate aminotransferase (AST), the alanine aminotransferase (ALT), the serum triglyceride (TG), the free fatty acid value (FFA) and the total cholesterol value (T-cho) were measured.

In assay [2] the test system is subjects who had NAFLD in 31 IU/L or more of ALT. The conditions noted are these: 300 mg per day oral.
Where [3] appears, read: HFD6 and HFD60 groups in comparison to HFD group.
Where [4] appears, read: high-fat food, glutathione 6 and 60 mg/kg/day in water.

For the compound `N[C@@H](CCC(=O)N[C@@H](CS)C(=O)NCC(=O)O)C(=O)O` [glutathione], in assay [1] (setting [3]), the “FFA (free fatty acid value)” value was “significant decrease” and the “T-cho (total cholesterol value)” value is “significant decrease”. In assay [1] (setting [4]), the liver weight result was “decreased dependently on the concentration” and the “ratio of liver weight/body weight” value is “decrease of the body weight ratio was also recognized”. The body weight entry in assay [1] (high-fat food, glutathione 6 or 60 mg/kg/day in water) was “decrease of the body weight was recognized”. In addition, in assay [1] (serum, HFD6 and HFD60 groups in comparison to HFD group), the “TG (triglyceride value)” value is on record as “significant decrease”. Further, the “FibroScan (after treatment) CAP” value in assay [2] (after treatment, individual subject per table row) is 280 dBe. Moreover, the “improvement of ALT after administration in comparison to ALT before the administration (0 wk)” value in assay [2] (Case IDs 1 to 9 of 16 subjects, at any week after initiation) is recorded as no less than 20%.
